The values below come from patent publication US20230144898A1, “INHIBITOR OF ASPARTIC ACID SYNTHESIS IN TUMOR CELLS, INHIBITOR OF SPHEROID FORMATION OF TUMOR CELLS, INHIBITOR OF TUMOR CELL METASTASIS, ACTIVITY ENHANCER OF GLYCOLYTIC INHIBITOR, AND PHARMACEUTICAL COMPOSITION FOR SUPPRESSING AND/OR PREVENTING TUMOR METASTASIS” (CCI HOLDINGS INC., priority 2020, published 2023).

Molecules are shown by their SMILES. Several values for one entry are separate records, joined by “and”; a condition that tells them apart may be missing. Equal values may be shown once. Entries after “also recorded” stand apart in the source; their conditions may differ. Bounds are passed on as bounds.

Data set [1] deals with B16F10 cells. The data set can be described thus: Spheroid formation assay (Test Example 4). The format is cell-based, mouse. As to conditions: 0.3 µM or 3 µM; 24, 48 and 72 hours. The procedure: Specifically, B16F10 cells were seeded in an amount of 0.3×10^5 cells/mL in a 96-well plate for spheroid formation in an amount of 100 µL each. Thereupon, neopetasin at a concentration of 0.3 µM or 3 µM was added to the medium. Cells were photographed using a phase-contrast microscope after 24 hours, 48 hours and 72 hours of adding neopetasin. Moreover, as a negative control section, DMSO was administered to perform the same experiment.

Data set [2] concerns B16F10 cells. The data set can be described thus: Scratch wound healing assay (Test Example 5). The format is cell-based, mouse. The conditions noted are these: 0.3 µM, 72 hours. The procedure:
Specifically, to start with, B16F10 cells were seeded in a six-well plate in an amount of 1.0×10^5 cells/mL. After 24 hours starting from seeding, scratches were then made using 200 µL chips. Thereafter, the medium was changed to a neopetasin-containing one (concentration: 0.3 µM), the cells were further cultured for 72 hours, and the cells were photographed. In addition, as a negative control section, the same experiment was performed by replacing the medium with the same medium not containing neopetasin.

Data set [3] relates to KMeC cells (canine malignant melanoma cells). Put plainly: Western blotting of cancer-related proteins, KMeC cells (Test Example 10). The format is cell-based. As to conditions: 3 µM, 56 hours. The procedure:
KMeC cells (canine malignant melanoma cells) were obtained from the Veterinary Surgery Laboratory, Graduate School of Agricultural and Life Sciences, the University of Tokyo. KMeC cells were cultured in an incubator (air/CO2 = 95/5 (v/v)) at 37° C. using RPMI1640 medium.
To start with, each cell was seeded at 0.5×10^5 cells/mL in a six-well plate, and after 24 hours of seeding, neopetasin (final concentration: 3 µM) was suspended in a medium and incubated for 56 hours. […] thus treated with neopetasin (3 µM) for 56 hours were recovered with a cell scraper. Furthermore, DMSO was administered to the negative control section, and the same experiment was performed.
Next, the cells were homogenized in ice-cold lysis buffer (10 mM Tris-HCl (pH 7.4), 1% (w/v) NP-40, 0.1% (w/v) deoxycholic acid, 0.1% (w/v) SDS, 150 mM NaCl, 1 mM EDTA, and 1% (w/v) protease inhibitor cocktail (Sigma-Aldrich) and allowed to stand on ice for 20 minutes. The homogenate was centrifuged at 13,000 rpm for 20 minutes (4° C.), and then the supernatant was collected as a sample for Western blotting. The protein content in the sample was measured using a DC protein assay kit (manufactured by Bio-Rad Laboratories, Inc.). A sample (protein amount of 5 µg) was separated by SDS-PAGE using 10.0 or 12.5% (w/v) polyacrylamide gel, and transferred to a PVDF membrane (PerkinElmer Life Science Co., Ltd). […]

Data set [4] relates to mitochondria in B16F10 cells. The data set can be described thus: Electron microscope observation of treated cells (Test Example 8). The conditions noted are these: neopetasin 3 µM, metformin 5000 µM. Type of data set: cell-based, mouse. The procedure: Following the above results, the cells respectively treated with neopetasin (3 µM) and metformin (5000 µM) in the above were observed using an electron microscope. Furthermore, DMSO was administered to the negative control section, and the same experiment was performed.

Data set [5] is described as follows: Microscopic observation of organ tissue sections of model mice (Test Example 2). The format is in vivo. As to conditions: heart, normal site of lung, cerebrum, kidney, liver, spleen, 50 mg/kg i.p. The method, then: Furthermore, when the model mouse to which neopetasin or corn oil was administered was dissected in the above, sections were prepared from the tissues of each organ (heart, normal site of lung, cerebrum, kidney, liver, spleen) and were observed using a microscope. […] The results are consistent with specificity of the action of neopetasin on tumor cells in vitro as described above in Test

For data set [6], the system named is A2058 cells. Put plainly: Western blotting of cancer-related proteins, A2058 cells (Test Example 10). Type of data set: cell-based, human. The conditions noted are these: 3 µM, 56 hours.
In data set [7] the test system is B16F10 cells (mouse malignant melanoma cells). Put plainly: Proliferation inhibition, B16F10 cells (Test Example 1). The format is cell-based. The conditions noted are these: B16-F10, read-out: IC50, proliferation inhibitory activity on B16F10 cells.
Data set [8] has as its system mitochondrial respiratory chain Complex I. The data set can be described thus: MitoCheck Complex Activity Assay (Test Example 9). Type of data set: biochemical. The conditions noted are these: II, II/III, IV and V tested. The method, then: Specifically, using the MitoCheck Complex Activity Assay Kit (Cayman Chemical Company, Ann Arbor, MI, USA), extent of relative activity of each of Complex I, Complex II, Complex II/III, Complex IV and Complex V constituting the mitochondrial respiratory chain that was reduced by neopetasin treatment was examined. Furthermore, as a negative control section, DMSO was administered to perform the same experiment. In addition, as a positive control section, rotenone (Complex I), TTFA (Complex II), antimycin A (Complexes II/III), KCN (Complex IV), and oligomycin (Complex V) were each administered, and the same experiment was conducted.

Data set [9] concerns mitochondria in B16F10 cells. The data set can be described thus: MitoTracker Orange staining of mitochondria (Test Example 8). Type of data set: cell-based, mouse. The method, then:
In order to determine the action mechanism of neopetasin on inhibiting the aspartic acid synthesis in tumor cells, the influence of neopetasin on mitochondria in B16F10 cells was evaluated. Specifically, B16F10 cells treated with neopetasin (3 µM) for 48 hours through the same method as in Test Example 1 were stained using MitoTracker Orange (Thermo Fisher Scientific, MA, USA), which labels mitochondria depending on membrane potential. In addition, as a positive control section, in place of neopetasin, metformin known as a mitochondrial respiratory chain Complex I inhibitor (mitochondrial toxin) was used at a concentration of 5000 µM to perform the same experiment. Subsequently, the cells stained as described above were photographed with a fluorescence microscope (FIG. 9A). In addition, the relationship between fluorescence intensity of the cells and the distribution of the number of cells was measured using an image cytometer (Tali, Thermo Fisher Scientific, MA, USA) (FIG. 9B).

With `C=C(C)[C@H]1C[C@@]2(C)C(=CC1=O)CC[C@@H](OC(=O)/C(C)=C\C)[C@@H]2C` [Neopetasin, neopetasin], the spheroid formation result in [1] was “could not form spheroids”. The “migration of tumor cells to the scratch portion” value in data set [2] was “suppressed”. The “expression of cancer-related molecules” value in data set [3] and in data set [6] was “inhibit a wide range of cancer-related molecules” each time. Moreover, the “influence on mitochondria (electron microscope)” value in data set [4] is reported as “most mitochondria were vacuolated”. The “histological and morphological changes / toxicity in organs” value in data set [5] was “no histological and morphological changes; also recorded: showed little toxicity to the liver, kidney, spleen”. Further, the IC50 in [7] was 493 nM and 0.156 µg/mL. Also, in [8], the “relative activity of mitochondrial respiratory chain complexes” value was “selectively reduced only the relative activity of the mitochondrial respiratory chain Complex I”. The “activity relative to metformin” value in [9] (neopetasin 3 µM vs metformin 5000 µM) is reported as at least 1000 times. In [9] (neopetasin 3 µM, metformin 5000 µM, 48 hours), the “MitoTracker Orange fluorescence intensity” value is given as “enhanced fluorescence intensity”.
